Reference: article PMC11187625, “New Labeled PET Analogues Enable the Functional Screening and Characterization of PET-Degrading Enzymes” (ACS Sustainable Chemistry & Engineering, 2024)

Test system: T1, A. niger lipase
T1 construct: commercial preparation, Fluka Analytical
Assay: fluorescence, 4-mU release
Format: biochemical, Aspergillus niger
Conditions: 0.1 M phosphate pH 7, 30 °C, 5% DMSO
Text: fluorescence, 4-mU release on A. niger lipase

SMILES	Km
COC(=O)c1ccc(C(=O)Oc2ccc3c(C)cc(=O)oc3c2)cc1 [A, Methyl (4-Methyl-2-oxo-2H-chromen-7-yl) Terephthalate]	5.7 ± 0.5 µM
CCOCCOC(=O)c1ccc(C(=O)Oc2ccc3c(C)cc(=O)oc3c2)cc1 [B, 2-Ethoxyethyl (4-Methyl-2-oxo-2H-chromen-7-yl) Terephthalate]	1 ± 0.1 µM
COC(=O)c1ccc(C(=O)OCCOC(=O)c2ccc(C(=O)Oc3ccc4c(C)cc(=O)oc4c3)cc2)cc1 [C, 2-((4-(Methoxycarbonyl)benzoyl)oxy)ethyl (4-Methyl-2-oxo-2H-chromen-7-yl) Terephthalate]	0.6 ± 0.1 µM
